Test: Dissolution testing of MK-9 API and nanosuspension in Fed State Simulated Intestinal Fluid (FeSSIF)
Format: physicochemical
Settings: for % Dissolution (Avg of n = 3): FeSSIF pH 5, 37° C., 0.01 mg/mL drug load
Description: MK-9 (menaquinone-9, API) is suspended in an aqueous vehicle containing wetting agent sodium deoxycholate. The API concentration is 4% and the wetting agent concentration was 0.4% w/w. The API particles are milled to a particle size of 155 nm using zirconium milling beads and high shear Beadbeater mixing. The dissolution of the nanosuspension is tested at a concentration of 0.01 mg/mL, in triplicate, in pH 5 Fed State Simulated Intestinal Fluid (FeSSIF).
2. Fill three (3) vessels with 500 mL of FeSSIF media and heat to 37° C.
3. Set up the following dissolution conditions:
4. Vortex suspension x for approximately one minute so that it is uniform. Weigh three (3) aliquots of 0.15 g of the 4% nanosuspension into a tared syringe to give a target 100% dissolution concentration of 0.01 mg/mL. Record weight.
5. Add weighed suspension directly to each vessel.
7. After five minutes, manually pull up 3 mL from each dissolution vessel in a syringe.
8. Attach a 0.2 μm filter to the syringe.
9. Transfer 2 mL of the dissolution sample back into the vessel.
10. Transfer the final 1 mL of sample to an amber HPLC vial and crimp seal.
12. After the 60-minute time-point, mix each vessel for 5 minutes with a high shear mixer.
13. Repeat Step #8-11 and label this sample as ‘infinity’.
14. Run samples on HPLC 10 minutes HPLC method with replicate HPLC standard solutions.
MK-9 (menaquinone-9, API) is suspended in an aqueous vehicle containing wetting agent, sodium deoxycholate. The API concentration is 4% and the wetting agent concentration was 0.4% w/w. The API particles are milled to a particle size of 155 nm by use of zirconium milling beads and high shear Beadbeater mixing. The dissolution of the nanosuspension is tested at a concentration of 0.01 mg/mL, in triplicate, in pH 5 FeSSIF. […] The nano-milling process is scaled up and the suspended nano-particles are removed from the suspension vehicle, dry and formulate into a fast dissolving tablet, and tested.

% Dissolution (Avg of n = 3) (timepoint 0 minute): 0%
% Dissolution (Avg of n = 3) (timepoint 10 minute): 96%
% Dissolution (Avg of n = 3) (timepoint 10 minute, listed as MK-9 API): about 20%
% Dissolution (Avg of n = 3) (timepoint 15 minute): 97%
% Dissolution (Avg of n = 3) (timepoint 30 minute): 97%
% Dissolution (Avg of n = 3) (timepoint 45 minute): 98%
% Dissolution (Avg of n = 3) (timepoint 60 minute): 96%
% Dissolution (Avg of n = 3) (timepoint Infinity (after 5 minutes high shear mixing)): 97%
% Dissolution (dissolution profile) (FeSSIF, at about 120 mins): about 20%
SMILES: CC(C)=CCC/C(C)=C/CC/C(C)=C/CC/C(C)=C/CC/C(C)=C/CC/C(C)=C/CC/C(C)=C/CC/C(C)=C/CC/C(C)=C/CC1=C(C)C(=O)c2ccccc2C1=O [API, menaquinone-9]

Source: patent US12453700B2, “Nano-particles of menaquinone-9 and methods of treatment” (Epizon, Inc., priority 2024, dated 2025)
